From patent US10004786B2 (Zealand Pharma A/S, priority 2009, dated 2018)
Numbered stars: 1 amine (or outer) side, 2 acyl side, 3 side chain; on linkers, the order of the positions; unused ones are H or OH. Bridge positions count the residues as written; N and C are the ends. Square brackets hold non-standard residues; d marks the D form. Side chains are listed from the residue outwards. Peptide text beside a SMILES is read from it. * marks the point of attachment. γGlu = O=C(O)[C@H](CCC(=O)[*:2])N[*:1]; Palmitoyl = CCCCCCCCCCCCCCCC(=O)*; Aib = CC(C)(N)C(=O)O

Assay: Body weight gain in high fat fed C57BL/6J mice (10 days)
Type: in vivo
Settings: 5 nmol/kg b.i.d. s.c., short term high fat-fed C57BL/6J mice
Experimental: C57Bl/6J male mice, 6 weeks old, were acclimatized in their new environment for 4 weeks with free access to high fat diet (HFD) (D12492, Research Diet Inc., New Brunswick, USA) and water. The animals were injected s.c. with 100 μl vehicle for a period of three days to acclimatize the animals to handling and injections, prior to initiation of peptide treatment. […] Throughout the study, body weights were recorded daily and used to administer the body weight-corrected doses of peptide. All animals were sacrificed on the same day by cervical dislocation.
C57Bl/6J male mice on high fat diet (HFD) were treated (b.i.d.; s.c.) (0.5 and 5 nmol/kg) or vehicle. Body weights were recorded daily and used to administer the body weight-corrected doses of peptide throughout the study. Data are shown as mean±SEM in FIG. 7.

Structure (SMILES) | body weight gain, high dose
CCCCCCCCCCCCCCCC(=O)N[C@@H](CCC(=O)NCCCC[C@H](NC(=O)[C@H](CO)NC(=O)[C@H](CC(=O)O)NC(=O)[C@H](CC(C)C)NC(=O)[C@H](Cc1ccc(O)cc1)NC(=O)[C@H](CCCCN)NC(=O)[C@H](CO)NC(=O)[C@H](Cc1ccc(O)cc1)NC(=O)[C@H](CC(=O)O)NC(=O)[C@H](CO)NC(=O)[C@@H](NC(=O)[C@H](Cc1ccccc1)NC(=O)[C@@H](NC(=O)CNC(=O)[C@H](CCC(N)=O)NC(=O)[C@H](CO)NC(=O)[C@@H](N)Cc1c[nH]cn1)[C@@H](C)O)[C@@H](C)O)C(=O)N[C@@H](C)C(=O)N[C@@H](C)C(=O)N[C@@H](Cc1c[nH]cn1)C(=O)N[C@@H](CC(=O)O)C(=O)N[C@@H](Cc1ccccc1)C(=O)N[C@H](C(=O)N[C@@H](CCC(=O)O)C(=O)N[C@@H](Cc1c[nH]c2ccccc12)C(=O)N[C@@H](CC(C)C)C(=O)N[C@@H](CC(C)C)C(=O)N[C@@H](CCCNC(=N)N)C(=O)N[C@@H](C)C(N)=O)C(C)C)C(=O)O [Compound 3] (H-HSQGTFTSDYSKYLDSK([γGlu-Palmitoyl])AAHDFVEWLLRA-NH2) | significantly decreased body weight gain at the high dose

Assay: Pharmacokinetic screening in mouse plasma after subcutaneous administration
Type: in vivo
Settings: sc, mice, 100 nmol/kg s.c., * = only two time points used for calculation
Experimental: Mice were dosed 100 nmol/kg subcutaneously (s.c.). The mice were sacrificed and the blood collected at the following time points; 0.5, 2, 4, 6, 16 and 24 h. Plasma samples were analyzed using protein precipitation, followed by solid phase extraction (SPE) and liquid chromatography mass spectrometry (LC-MS).
Pharmacokinetic profiles were determined for various acylated compounds.

Structure (SMILES) | half-life [h]
CCCCCCCCCCCCCCCC(=O)N[C@@H](CCC(=O)NCCCC[C@H](NC(=O)[C@H](C)NC(=O)[C@H](C)NC(=O)[C@H](CCCCN)NC(=O)[C@H](CO)NC(=O)[C@H](CC(=O)O)NC(=O)[C@H](CC(C)C)NC(=O)[C@H](Cc1ccc(O)cc1)NC(=O)[C@H](CCCCN)NC(=O)[C@H](CO)NC(=O)[C@H](Cc1ccc(O)cc1)NC(=O)[C@H](CC(=O)O)NC(=O)[C@H](CO)NC(=O)[C@@H](NC(=O)[C@H](Cc1ccccc1)NC(=O)[C@@H](NC(=O)CNC(=O)[C@H](CCC(N)=O)NC(=O)[C@H](CO)NC(=O)[C@@H](N)Cc1c[nH]cn1)[C@@H](C)O)[C@@H](C)O)C(=O)N[C@@H](CC(=O)O)C(=O)N[C@@H](Cc1ccccc1)C(=O)N[C@H](C(=O)N[C@@H](CCC(=O)O)C(=O)N[C@@H](Cc1c[nH]c2ccccc12)C(=O)N[C@@H](CC(C)C)C(=O)N[C@@H](CC(C)C)C(=O)N[C@@H](CCCNC(=N)N)C(=O)N[C@@H](C)C(N)=O)C(C)C)C(=O)O [Compound 4] (H-HSQGTFTSDYSKYLDSKAAK([γGlu-Palmitoyl])DFVEWLLRA-NH2) | 2
CCCCCCCCCCCCCCCC(=O)N[C@@H](CCC(=O)NCCCC[C@H](NC(=O)[C@H](CO)NC(=O)[C@H](CC(=O)O)NC(=O)[C@H](CC(C)C)NC(=O)[C@H](Cc1ccc(O)cc1)NC(=O)[C@H](CCCCN)NC(=O)[C@H](CO)NC(=O)[C@H](Cc1ccc(O)cc1)NC(=O)[C@H](CC(=O)O)NC(=O)[C@H](CO)NC(=O)[C@@H](NC(=O)[C@H](Cc1ccccc1)NC(=O)[C@@H](NC(=O)CNC(=O)[C@H](CCC(N)=O)NC(=O)C(C)(C)NC(=O)[C@@H](N)Cc1c[nH]cn1)[C@@H](C)O)[C@@H](C)O)C(=O)N[C@@H](C)C(=O)N[C@@H](C)C(=O)N[C@@H](CCCNC(=N)N)C(=O)N[C@@H](CC(=O)O)C(=O)N[C@@H](Cc1ccccc1)C(=O)N[C@H](C(=O)N[C@@H](C)C(=O)N[C@@H](Cc1c[nH]c2ccccc12)C(=O)N[C@@H](CC(C)C)C(=O)N[C@@H](CC(C)C)C(=O)N[C@@H](CCCNC(=N)N)C(=O)N[C@@H](C)C(N)=O)C(C)C)C(=O)O [Compound 9] (H-H[Aib]QGTFTSDYSKYLDSK([γGlu-Palmitoyl])AARDFVAWLLRA-NH2) | 2.4
CCCCCCCCCCCCCCCC(=O)N[C@@H](CCC(=O)NCCCC[C@H](NC(=O)[C@H](CO)NC(=O)[C@H](CC(=O)O)NC(=O)[C@H](CC(C)C)NC(=O)[C@H](Cc1ccc(O)cc1)NC(=O)[C@H](CCCCN)NC(=O)[C@H](CO)NC(=O)[C@H](Cc1ccc(O)cc1)NC(=O)[C@H](CC(=O)O)NC(=O)[C@H](CO)NC(=O)[C@@H](NC(=O)[C@H](Cc1ccccc1)NC(=O)[C@@H](NC(=O)CNC(=O)[C@H](CCC(N)=O)NC(=O)C(C)(C)NC(=O)[C@@H](N)Cc1c[nH]cn1)[C@@H](C)O)[C@@H](C)O)C(=O)N[C@@H](C)C(=O)N[C@@H](C)C(=O)N[C@@H](Cc1c[nH]cn1)C(=O)N[C@@H](CC(=O)O)C(=O)N[C@@H](Cc1ccccc1)C(=O)N[C@H](C(=O)N[C@H]1CCC(=O)NCCCC[C@@H](C(=O)N[C@@H](C)C(N)=O)NC(=O)[C@H](CC(C)C)NC(=O)[C@H](CC(C)C)NC(=O)[C@H](Cc2c[nH]c3ccccc23)NC1=O)C(C)C)C(=O)O [Compound 13] (H-H[Aib]QGTFTSDYSKYLDSK([γGlu-Palmitoyl])AAHDFVEWLLKA-NH2; lactam 24-28) | 6.4
CCCCCCCCCCCCCCCC(=O)N[C@@H](CCC(=O)NCCCC[C@H](NC(=O)[C@H](CC(=O)O)NC(=O)[C@H](CC(C)C)NC(=O)[C@H](Cc1ccc(O)cc1)NC(=O)[C@H](CCCCN)NC(=O)[C@H](CO)NC(=O)[C@H](Cc1ccc(O)cc1)NC(=O)[C@H](CC(=O)O)NC(=O)[C@H](CO)NC(=O)[C@@H](NC(=O)[C@H](Cc1ccccc1)NC(=O)[C@@H](NC(=O)CNC(=O)[C@H](CCC(N)=O)NC(=O)[C@H](CO)NC(=O)[C@@H](N)Cc1c[nH]cn1)[C@@H](C)O)[C@@H](C)O)C(=O)N[C@@H](CCCCN)C(=O)N[C@@H](C)C(=O)N[C@@H](C)C(=O)N[C@@H](Cc1c[nH]cn1)C(=O)N[C@@H](CC(=O)O)C(=O)N[C@@H](Cc1ccccc1)C(=O)N[C@H](C(=O)N[C@@H](CCC(=O)O)C(=O)N[C@@H](Cc1c[nH]c2ccccc12)C(=O)N[C@@H](CC(C)C)C(=O)N[C@@H](CC(C)C)C(=O)N[C@@H](CCCNC(=N)N)C(=O)N[C@@H](C)C(N)=O)C(C)C)C(=O)O [Compound 2] (H-HSQGTFTSDYSKYLDK([γGlu-Palmitoyl])KAAHDFVEWLLRA-NH2) | 5.8
CCCCCCCCCCCCCCCC(=O)N[C@@H](CCC(=O)NCCCC[C@H](NC(=O)[C@H](CC(C)C)NC(=O)[C@H](Cc1c[nH]c2ccccc12)NC(=O)[C@H](CCC(=O)O)NC(=O)[C@@H](NC(=O)[C@H](Cc1ccccc1)NC(=O)[C@H](CC(=O)O)NC(=O)[C@H](Cc1c[nH]cn1)NC(=O)[C@H](C)NC(=O)[C@H](C)NC(=O)[C@H](CCCCN)NC(=O)[C@H](CO)NC(=O)[C@H](CC(=O)O)NC(=O)[C@H](CC(C)C)NC(=O)[C@H](Cc1ccc(O)cc1)NC(=O)[C@H](CCCCN)NC(=O)[C@H](CO)NC(=O)[C@H](Cc1ccc(O)cc1)NC(=O)[C@H](CC(=O)O)NC(=O)[C@H](CO)NC(=O)[C@@H](NC(=O)[C@H](Cc1ccccc1)NC(=O)[C@@H](NC(=O)CNC(=O)[C@H](CCC(N)=O)NC(=O)[C@H](CO)NC(=O)[C@@H](N)Cc1c[nH]cn1)[C@@H](C)O)[C@@H](C)O)C(C)C)C(=O)N[C@@H](CCCNC(=N)N)C(=O)N[C@@H](C)C(N)=O)C(=O)O [Compound 5] (H-HSQGTFTSDYSKYLDSKAAHDFVEWLK([γGlu-Palmitoyl])RA-NH2) | 5.3
